From patent US20260042764A1, “COMPOSITIONS AND METHODS FOR INHIBITION OF KRAS” (TheRas, Inc., priority 2022, published 2026) come the findings set out here.

Test [1] relates to GP2d cells (KRAS G12D). In words: Cell-based pERK HTRF assay in GP2d cell (Biological Example 2). The following applies: GP2d (KRAS G12D) cells, pERK HTRF. In short, it runs like this:
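60 min compound, 0.25% DMSO, 9-pt half-log curve from 1 μM or 100 nM; DMEM/10% FBS.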

For test [2], the target named is T1, Avi-KRAS G12R (1-169) GppNHp/RAF1 RBD-3xFLAG (52-151) (Homo sapiens, UniProt P01116, G12R).
T1 construct: Avi-KRAS G12R (1-169)
T1 sequence (P01116 1-169 isoform P01116-2 G12R): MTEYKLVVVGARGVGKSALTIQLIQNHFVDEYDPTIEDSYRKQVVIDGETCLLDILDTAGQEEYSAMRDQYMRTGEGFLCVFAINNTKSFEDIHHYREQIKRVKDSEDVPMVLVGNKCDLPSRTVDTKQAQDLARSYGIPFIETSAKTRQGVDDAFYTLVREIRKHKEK
In words: Raf1-KRAS G12R-GppNHP disruption HTRF assay (Biological Example 1). Format: binding. The following applies: KRAS G12R, GppNHp-loaded; Table 11. In short, it runs like this: (§1)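 Measured with a KRAS/RAF1 HTRF assay at pH 7.5 in 10% DMSO, with two 1 h room-temperature incubations with shaking.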

For test [3], the target named is T2, Avi-KRAS G12V (1-169) GppNHp/RAF1 RBD-3xFLAG (52-151) (Homo sapiens, UniProt P01116, G12V).
T2 construct: Avi-KRAS G12V (1-169)
T2 sequence (P01116 1-169 isoform P01116-2 G12V): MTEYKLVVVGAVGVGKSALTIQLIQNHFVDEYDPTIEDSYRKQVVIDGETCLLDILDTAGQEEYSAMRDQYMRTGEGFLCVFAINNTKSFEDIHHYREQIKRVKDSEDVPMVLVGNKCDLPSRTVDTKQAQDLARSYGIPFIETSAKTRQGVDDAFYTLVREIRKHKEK
Description: Raf1-KRAS G12V-GppNHP disruption HTRF assay (Biological Example 1). Format: binding. The conditions noted are these: KRAS G12V, GppNHp-loaded; Table 11. A digest of the protocol:
as §1

The target in test [4] is T3, Avi-KRAS WT (1-169) GppNHp/RAF1 RBD-3xFLAG (52-151) (Homo sapiens, UniProt P01116).
T3 construct: Avi-KRAS WT (1-169)
T3 sequence (P01116 1-169 isoform P01116-2): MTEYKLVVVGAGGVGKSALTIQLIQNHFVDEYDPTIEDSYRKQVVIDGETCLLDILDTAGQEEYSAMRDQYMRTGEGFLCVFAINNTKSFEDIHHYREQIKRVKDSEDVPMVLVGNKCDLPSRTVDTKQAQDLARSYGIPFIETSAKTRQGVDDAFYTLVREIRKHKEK
In words: Raf1-KRAS WT-GppNHP disruption HTRF assay (Biological Example 1). It counts as binding. The conditions noted are these: KRAS WT, GppNHp-loaded; Table 11. A digest of the protocol:
as §1

Test [5] has as its target T4, Avi-KRAS G12D (1-169) GppNHp/RAF1 RBD-3xFLAG (52-151) (Homo sapiens, UniProt P01116, G12D).
T4 construct: Avi-KRAS G12D (1-169)
In words: Raf1-KRAS G12D-GppNHP disruption HTRF assay (Biological Example 1). Format: binding. The following applies: KRAS G12D, GppNHp-loaded; Table 11. A digest of the protocol:
as §1

Molecules are shown by their SMILES.

T4 sequence (P01116 1-169 isoform P01116-2 G12D): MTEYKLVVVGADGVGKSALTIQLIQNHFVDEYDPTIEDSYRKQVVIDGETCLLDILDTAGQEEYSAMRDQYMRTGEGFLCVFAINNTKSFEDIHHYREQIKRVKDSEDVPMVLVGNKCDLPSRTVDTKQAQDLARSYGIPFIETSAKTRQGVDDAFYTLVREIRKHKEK

As to `CN(c1nc(OC[C@@]23CCCN2C[C@H](F)C3)nc2c(F)c(-c3ccc(F)c4sc(N)c(C#N)c34)c(C(F)(F)F)cc12)C1CCC(O)CC1` (some centres unmarked) [Compound 66], the IC50 in test [1], in test [2], in test [3], in test [4] and in test [5] was 100 to 1000 nM throughout.
Turning to `CN(C[C@@H](O)CO)c1nc(OC[C@@]23CCCN2C[C@H](F)C3)nc2c(F)c(-c3ccc(F)c4sc(N)c(C#N)c34)c(C(F)(F)F)cc12` [Compound 78], the IC50 in test [1] (GP2d) is less than 100 nM; in test [2] it was 100 to 1000 nM; in test [3], 100 to 1000 nM; in test [4], 100 to 1000 nM; in test [5] it was less than 100 nM.
`N#Cc1c(N)sc2c(F)ccc(-c3c(C(F)(F)F)cc4c(N5CC6(COC6)C5)nc(OC[C@@]56CCCN5C[C@H](F)C6)nc4c3F)c12` [Compound 149]: the IC50 is less than 100 nM in test [1] (GP2d); 1000 to 10000 nM in test [2]; 1000 to 10000 nM in test [3]; 100 to 1000 nM in test [4]; 100 to 1000 nM in test [5].
Consider `N#Cc1c(N)sc2c(F)ccc(-c3c(C(F)(F)F)cc4c(N5CC[C@@H]5CO)nc(OC[C@@]56CCCN5C[C@H](F)C6)nc4c3F)c12` [Compound 168], for which the IC50 was less than 100 nM in test [1] (GP2d); 100 to 1000 nM in test [2]; 100 to 1000 nM in test [3]; less than 100 nM in test [4]; less than 100 nM in test [5].
Turning to `CCN(C)c1nc(OC[C@@]23CCCN2C[C@H](F)C3)nc2c(F)c(-c3ccc(F)c4sc(N)c(C#N)c34)c(C(F)(F)F)cc12` [Compound 81, 2-amino-4-[4-[ethyl(methyl)amino]-8-fluoro-2-[[(2R,8S)-2-fluoro-1,2,3,5,6,7-hexahydropyrrolizin-8-yl]methoxy]-6-(trifluoromethyl)quinazolin-7-yl]-7-fluoro-benzothiophene-3-carbonitrile], the IC50 is less than 100 nM in test [1] (GP2d); less than 100 nM in test [2]; 100 to 1000 nM in test [3]; 100 to 1000 nM in test [4]; less than 100 nM in test [5].
For the molecule `C[C@@H](O)CN(C)c1nc(OC[C@@]23CCCN2C[C@H](F)C3)nc2c(F)c(-c3ccc(F)c4sc(N)c(C#N)c34)c(C(F)(F)F)cc12` [Compound 71], the IC50 was less than 100 nM in test [1] (GP2d); 100 to 1000 nM in test [2]; 100 to 1000 nM in test [3]; 100 to 1000 nM in test [4]; less than 100 nM in test [5].
As for `CN(c1nc(OC[C@@]23CCCN2C[C@H](F)C3)nc2c(F)c(-c3ccc(F)c4scc(C#N)c34)c(C(F)(F)F)cc12)[C@@H]1CCN(C(=O)CC#N)C1` [Compound 106], the IC50 in test [1] (GP2d) is greater than 1000 nM; in test [2] it was greater than 10000 nM; in test [3], greater than 10000 nM; in test [4], greater than 10000 nM; in test [5], greater than 10000 nM.
On to `CC(=O)NC1CN(c2nc(OC[C@@]34CCCN3C[C@H](F)C4)nc3c(F)c(-c4ccc(F)c5sc(N)c(C#N)c45)c(C(F)(F)F)cc23)C1` [Compound 88], for which the IC50 in test [1] (GP2d), in test [2], in test [3], in test [4] and in test [5] was 100 to 1000 nM each time.
In the case of `CO[C@@H]1C[C@@H](COc2nc(N(C)C3CC(O)C3)c3cc(C(F)(F)F)c(-c4ccc(F)c5sc(N)c(C#N)c45)c(F)c3n2)N(C)C1` (some centres unmarked) [Compound 40], the IC50 in test [1] (GP2d) was less than 100 nM; in test [2], 100 to 1000 nM; in test [3], 100 to 1000 nM; in test [4], 100 to 1000 nM; in test [5], 100 to 1000 nM.
As for `N#Cc1c(N)sc2c(F)ccc(-c3c(C(F)(F)F)cc4c(N5CC[C@H](CO)C5)nc(OC[C@@]56CCCN5C[C@H](F)C6)nc4c3F)c12` [Compound 123], the IC50 is less than 100 nM in test [1] (GP2d); 100 to 1000 nM in test [2]; 100 to 1000 nM in test [3]; 100 to 1000 nM in test [4]; 100 to 1000 nM in test [5].
Turning to `CCN(C)c1nc(OC[C@@]23CCCN2C[C@H](F)C3)nc2c(F)c(-c3ccc(F)c4sc(N)c(C#N)c34)c(C(F)(F)F)cc12` (single isomer, unassigned) [Compound 197], the IC50 in test [1] is greater than 1000 nM; in test [2], greater than 10000 nM; in test [3] it was greater than 10000 nM; in test [4] it was greater than 10000 nM; in test [5], greater than 10000 nM.
As to `CCN(CCCO)c1nc(OC[C@@]23CCCN2C[C@H](F)C3)nc2c(F)c(-c3ccc(F)c4sc(N)c(C#N)c34)c(C(F)(F)F)cc12` [Compound 175], the IC50 in test [1] (GP2d) is less than 100 nM; in test [2], 100 to 1000 nM; in test [3], 100 to 1000 nM; in test [4] it was 100 to 1000 nM; in test [5], 100 to 1000 nM.
Consider `C[C@@H](O)C1CCN(c2nc(OC[C@@]34CCCN3C[C@H](F)C4)nc3c(F)c(-c4ccc(F)c5sc(N)c(C#N)c45)c(C(F)(F)F)cc23)CC1` [Compound 49], for which the IC50 was less than 100 nM in test [1] (GP2d); 100 to 1000 nM in test [2]; 100 to 1000 nM in test [3]; 100 to 1000 nM in test [4]; less than 100 nM in test [5].
Consider `CCC(=O)N1C[C@H](C)N(c2nc(OC[C@@]34CCCN3C[C@H](F)C4)nc3c(F)c(-c4ccc(F)c5sc(N)c(C#N)c45)c(C(F)(F)F)cc23)C[C@H]1C` (atropisomer, axis not shown) [Compound 99], for which the IC50 in test [1] (GP2d) was less than 100 nM; in test [2] it was 1000 to 10000 nM; in test [3], greater than 10000 nM; in test [4], 1000 to 10000 nM; in test [5] it was 1000 to 10000 nM.
Turning to `CN(c1nc(OC[C@@]23CCCN2C[C@H](F)C3)nc2c(F)c(-c3ccc(F)c4sc(N)c(C#N)c34)c(C(F)(F)F)cc12)[C@H]1C[C@@H](O)C1` [Compound 18, 2-amino-7-fluoro-4-(8-fluoro-2-(((2R,7aS)-2-fluorotetrahydro-1H-pyrrolizin-7a(5H)-yl)methoxy)-4-(((1s,3R)-3-hydroxycyclobutyl)(methyl)amino)-6-(trifluoromethyl)quinazolin-7-yl)benzo[b]thiophene-3-carbonitrile], the IC50 in test [1] (GP2d) is less than 100 nM; in test [2], 100 to 1000 nM; in test [3], 100 to 1000 nM; in test [4], less than 100 nM; in test [5], less than 100 nM.
In the case of `CS(=O)(=O)N1CCN(c2nc(OC[C@@]34CCCN3C[C@H](F)C4)nc3c(F)c(-c4ccc(F)c5sc(N)c(C#N)c45)c(C(F)(F)F)cc23)CC1` [Compound 96], the IC50 in test [1] (GP2d) is less than 100 nM; in test [2] it was 1000 to 10000 nM; in test [3], 1000 to 10000 nM; in test [4], 1000 to 10000 nM; in test [5] it was 1000 to 10000 nM.
On to `CN(c1nc(OC[C@@]23CCCN2C[C@H](F)C3)nc2c(F)c(-c3ccc(F)c4sc(N)c(C#N)c34)c(C(F)(F)F)cc12)[C@H]1C[C@H](O)C1` [Compound 23], for which the IC50 in test [1] (GP2d) is less than 100 nM; in test [2] it was 100 to 1000 nM; in test [3] it was 100 to 1000 nM; in test [4], 100 to 1000 nM; in test [5], 100 to 1000 nM.
`CN(CC1(CO)CC1)c1nc(OC[C@@]23CCCN2C[C@H](F)C3)nc2c(F)c(-c3ccc(F)c4sc(N)c(C#N)c34)c(C(F)(F)F)cc12` [Compound 83]: the half-maximal inhibitory concentration (IC50) is less than 100 nM in test [1] (GP2d); 100 to 1000 nM in test [2]; 100 to 1000 nM in test [3]; 100 to 1000 nM in test [4]; 100 to 1000 nM in test [5].
Consider `N#Cc1c(N)sc2c(F)ccc(-c3c(C(F)(F)F)cc4c(N5CC[C@@H](CO)C5)nc(OC[C@@]56CCCN5C[C@H](F)C6)nc4c3F)c12` [Compound 124], for which the IC50 in test [1] (GP2d), in test [2], in test [3], in test [4] and in test [5] was 100 to 1000 nM each time.
In the case of `CCC(=O)N1CC[C@@H](N(C)c2nc(OC[C@@]34CCCN3C[C@H](F)C4)nc3c(F)c(-c4ccc(F)c5sc(N)c(C#N)c45)c(C(F)(F)F)cc23)[C@H]1C` [Compound 116], the half-maximal inhibitory concentration (IC50) in test [1] (GP2d) was less than 100 nM; in test [2], 100 to 1000 nM; in test [3], 100 to 1000 nM; in test [4], 100 to 1000 nM; in test [5], 100 to 1000 nM.
With `CN(c1nc(OC[C@@]23CCCN2C[C@H](F)C3)nc2cc(-c3ccc(F)c4sc(N)c(C#N)c34)c(C(F)(F)F)cc12)[C@H]1C[C@@H](O)C1` [Compound 33], the IC50 in test [1] (GP2d), in test [2], in test [3], in test [4] and in test [5] was 100 to 1000 nM each time.
For `CCN(c1nc(OC[C@@]23CCCN2C[C@H](F)C3)nc2c(F)c(-c3ccc(F)c4sc(N)c(C#N)c34)c(C(F)(F)F)cc12)C1CC1` [Compound 155], the IC50 in test [1] (GP2d) was less than 100 nM; in test [2], 100 to 1000 nM; in test [3], 1000 to 10000 nM; in test [4], 1000 to 10000 nM; in test [5], 100 to 1000 nM.
